Key:
in vivo = type: in vivo, rats (Sprague Dawley strain); details: rat, in vivo; oral, rats; dose at which Δ% was determined; read-out: Maximum action: Dose (highest non-toxic dose)
Procedure: (§1) To determine the anti-arrhythmic activity, the drugs were administered orally to rats (Sprague Dawley strain, weight […]) 45 minutes before the start of the narcosis.
(§2) The animals were narcotized with thiobutabartital (100 mg/kg administered intraperitoneally). The arrhythmogenic substance used was aconitine, which was administered by intravenous infusion (at a rate of 0.005 mg/kg. min) 60 minutes after administration of the test substance. In the case of untreated animals (N=30), arrhythmias occurred after an average of 3.7±0.9 minutes, the commencement of which can be delayed by anti-arrhythmic agents, the delay depending on the dosage.
(§3) For a quantitative evaluation of the linear relation between log dose (mg/kg) of the test substances and the relative prolongation of the duration of aconitine infusion (Δ%), the dose which extended the duration of infusion by 50% (ED 50) was determined. The prior art anti-arrhythmic agent quinidine served as a comparative substance.

[1] = system: Aconitine-induced arrhythmia; assay: animal or person; type: in vivo, rats (Sprague Dawley strain); details: for ED50: Rattus norvegicus, po, 1 h, read-out: ED 50: dose, administered orally, which prolongs the duration of aconitine infusion by 50%; for antiarrhythmic action (in words): as such and/or as acid addition salts
Procedure: as §1, §2, §3

[2] = acute toxicity (LD 50, Probit analysis, death within 24 hours); details: mouse, in vivo; for LD50 at 24 h: ip, intraperitoneal, female Swiss mice; for selectivity ratio: footnote 7 formula given as drawing 13, values correspond to LD 50 (mice, i.p.) / ED 50 (rats, oral), read-out: Therapeutic range
Procedure: The acute toxicity was determined on groups of 10 or 20 female Swiss mice, weighing 20-26 g, the compounds being administered intraperitoneally.

Structure (SMILES) | MTD (in vivo) [mg/kg] | ED50 [1] [mg/kg] | antiarrhythmic action (in words) [1] | LD50 at 24 h [2] [mg/kg] | selectivity ratio [2]
Cc1nc(Cc2ccccc2)c2c(c1OCCC(C)CCNC(C)C)COC2 (centres unmarked) [VI, 4-benzyl-6-methyl-1,3-dihydrofuro[3,4-c]pyridin-7-yl 5-isopropylamino-(3-methylpentyl) ether] | 100 | 12.2 | have an antiarrhythmic action | 82.2 | 6.74
Cc1nc(Cc2ccccc2)c2c(c1OCCCCNC(C)C)COC2 [V, 4-benzyl-6-methyl-1,3-dihydro-furo[3,4-c]pyridin-7-yl 4-isopropylaminobutyl ether] | 100 | 5.66 | have an antiarrhythmic action | 99.3 | 17.5
CCN(CC)CCC(C)CCOc1c(C)nc(Cc2ccccc2)c2c1COC2 (centres unmarked) [VII, 4-benzyl-6-methyl-1,3-dihydro-furo[3,4-c]pyridin-7-yl 5-diethylamino-(3-methylpentyl) ether] | 100 | 11.3 | have an antiarrhythmic action | 88.9 | 7.86
C=C[C@H]1C[N@@]2CC[C@H]1C[C@@H]2[C@@H](O)c1ccnc2ccc(OC)cc12 [Quinidine, quinidine, reference compound] |  | 42.3 |  | 180 | 
Cc1nc(Cc2ccccc2)c2c(c1OCCCCNC(C)(C)C)COC2 [VIII, 4-benzyl-6-methyl-1,3-dihydrofuro[3,4-c]pyridin-7-yl 4-tert.-butylamino-butyl ether] | 46.4 | 9.29 | have an antiarrhythmic action | 73.9 | 7.95
CN(C)CCCOc1c(Cc2ccccc2)nc(Cc2ccccc2)c2c1COC2 [III, 4,6-dibenzyl-1,3-dihydrofuro[3,4-c]pyridin-7-yl 3-dimethylaminopropyl ether] | 215 | 14.9 | have an antiarrhythmic action | 98.3 | 6.6
Cc1nc(Cc2ccccc2)c2c(c1OCCCNC(C)C)COC2 [Example IV, 4-benzyl-6-methyl-1,3-dihydro-furo[3,4-c]pyridin-7-yl 3-isopropylamino-propyl ether] | 215 | 28.9 | have an antiarrhythmic action | 139 | 4.81
